{"source": "patent US20170319570A1", "about": "“Treatment of Multiple Sclerosis With Combination of Laquinimod and Dimethyl Fumarate” (Teva Pharmaceutical Industries, Ltd., priority 2012, published 2017)", "key": {"RRMS patients": {"test_system": "RRMS patients", "details": "Phase 2B trial; cited from earlier work"}, "MOG peptide induced EAE": {"test_system": "MOG peptide induced EAE", "details": "cited from earlier work"}, "MOG-induced EAE": {"test_system": "MOG-induced EAE", "experiment": "MOG-induced EAE, laquinimod alone or with add on DMF (Example 1A)", "format": "in vivo, mouse", "details": "oral QD"}, "[1]": {"details": "in vivo; cited from earlier work"}, "MOG induced EAE": {"test_system": "MOG induced EAE", "experiment": "MOG-induced EAE, laquinimod in combination with DMF (Example 1B)", "format": "in vivo, mouse", "details": "Day 1 to 30, dead or moribund/total"}}}
{"smiles": "COC(=O)/C=C/C(=O)OC", "note": "[DMF, Dimethyl (E)-but-2-Enedioate]", "values": [{"measurement": "annualized relapse rate", "setting": "RRMS patients", "value": "non-significant decrease"}, {"measurement": "new gadolinium enhancing lesions, T1 and T2 lesions", "setting": "RRMS patients", "value": "significant decreases"}, {"measurement": "plasma levels of IL-10", "setting": "MOG peptide induced EAE; MOG peptide induced EAE", "value": "increased"}, {"measurement": "glial inflammation", "setting": "MOG peptide induced EAE; during MOG peptide induced EAE", "value": "reduced"}, {"measurement": "effectiveness on disease severity", "setting": "MOG-induced EAE", "value": "moderately effective"}]}
{"smiles": "CCN(C(=O)c1c(O)c2c(Cl)cccc2n(C)c1=O)c1ccccc1", "note": "[Laquinimod]", "values": [{"measurement": "oral bioavailability", "setting": "[1]", "value": "high"}, {"measurement": "effectiveness on disease severity", "setting": "MOG-induced EAE; 0.06 mg/kg laquinimod alone", "value": "moderately effective"}, {"measurement": "Mortality", "setting": "MOG induced EAE; Group 2: laquinimod 5 mg/kg/day gavage qd", "value": "0/15"}, {"measurement": "Mortality", "setting": "MOG induced EAE; Group 3: laquinimod 10 mg/kg/day gavage qd", "value": "0/15"}, {"measurement": "Mortality", "setting": "MOG induced EAE; Group 4: laquinimod 25 mg/kg/day gavage qd", "value": "0/15"}]}
